According to ChEMBL document CHEMBL5724914, “Linking interpersonal differences in gut microbiota composition and drug biotransformation activity” (2024):

Key:
[1] = The drug is tested on Z-024 corresponding to pig gut metagenome with ENA study accession number: PRJEB37062 and ENA sample accession number: ERS12561823 for biotransformation under anaerobic condition. The drug concentrations were measured over 9 timepoints collected between 0 and 24 hours of incubation by liquid-chromatography-coupled mass spectrometry (LC–MS); conditions: 2 µM
[2] = The drug is tested on Z-017 corresponding to mouse gut metagenome with ENA study accession number: PRJEB37062 and ENA sample accession number: ERS12561816 for biotransformation under anaerobic condition. The drug concentrations were measured over 9 timepoints collected between 0 and 24 hours of incubation by liquid-chromatography-coupled mass spectrometry (LC–MS); conditions: 2 µM
[3] = The drug is tested on Z-010 corresponding to metagenome with ENA study accession number: PRJEB37062 and ENA sample accession number: ERS12561810 for biotransformation under anaerobic condition. The drug concentrations were measured over 9 timepoints collected between 0 and 24 hours of incubation by liquid-chromatography-coupled mass spectrometry (LC–MS); conditions: 2 µM
[4] = The drug is tested on Z-009 corresponding to pig gut metagenome with ENA study accession number: PRJEB37062 and ENA sample accession number: ERS12561809 for biotransformation under anaerobic condition. The drug concentrations were measured over 9 timepoints collected between 0 and 24 hours of incubation by liquid-chromatography-coupled mass spectrometry (LC–MS); conditions: 2 µM
[5] = The drug is tested on Z-001 corresponding to mouse gut metagenome with ENA study accession number: PRJEB37062 and ENA sample accession number: ERS12561801 for biotransformation under anaerobic condition. The drug concentrations were measured over 9 timepoints collected between 0 and 24 hours of incubation by liquid-chromatography-coupled mass spectrometry (LC–MS); conditions: 2 µM
[6] = The drug is tested on WLS-350 corresponding to human gut metagenome with ENA study accession number: PRJEB37062 and ENA sample accession number: ERS12561789 for biotransformation under anaerobic condition. The drug concentrations were measured over 9 timepoints collected between 0 and 24 hours of incubation by liquid-chromatography-coupled mass spectrometry (LC–MS); conditions: 2 µM
[7] = The drug is tested on WLS-220 corresponding to human gut metagenome with ENA study accession number: PRJEB37062 and ENA sample accession number: ERS12561769 for biotransformation under anaerobic condition. The drug concentrations were measured over 9 timepoints collected between 0 and 24 hours of incubation by liquid-chromatography-coupled mass spectrometry (LC–MS); conditions: 2 µM
[8] = The drug is tested on WLS-086 corresponding to human gut metagenome with ENA study accession number: PRJEB37062 and ENA sample accession number: ERS12561752 for biotransformation under anaerobic condition. The drug concentrations were measured over 9 timepoints collected between 0 and 24 hours of incubation by liquid-chromatography-coupled mass spectrometry (LC–MS); conditions: 2 µM
[9] = The drug is tested on WLS-073 corresponding to human gut metagenome with ENA study accession number: PRJEB37062 and ENA sample accession number: ERS12561749 for biotransformation under anaerobic condition. The drug concentrations were measured over 9 timepoints collected between 0 and 24 hours of incubation by liquid-chromatography-coupled mass spectrometry (LC–MS); conditions: 2 µM
[10] = The drug is tested on WLS-052 corresponding to human gut metagenome with ENA study accession number: PRJEB37062 and ENA sample accession number: ERS12561747 for biotransformation under anaerobic condition. The drug concentrations were measured over 9 timepoints collected between 0 and 24 hours of incubation by liquid-chromatography-coupled mass spectrometry (LC–MS); conditions: 2 µM
[11] = The drug is tested on WLS-038 corresponding to human gut metagenome with ENA study accession number: PRJEB37062 and ENA sample accession number: ERS12561745 for biotransformation under anaerobic condition. The drug concentrations were measured over 9 timepoints collected between 0 and 24 hours of incubation by liquid-chromatography-coupled mass spectrometry (LC–MS); conditions: 2 µM
[12] = human gut metagenome, 24 h, 2 µM
[13] = human gut metagenome, 24 h, 2 µM; remark: listed apart in the source
[14] = human gut metagenome, 24 h, 2 µM; remark: listed apart in the source
[15] = human gut metagenome, 24 h, 2 µM; remark: listed apart in the source
[16] = human gut metagenome, 24 h, 2 µM; remark: listed apart in the source
[17] = human gut metagenome, 24 h, 2 µM; remark: listed apart in the source
[18] = human gut metagenome, 24 h, 2 µM; remark: listed apart in the source
[19] = human gut metagenome, 24 h, 2 µM; remark: listed apart in the source
[20] = human gut metagenome, 24 h, 2 µM; remark: listed apart in the source

Measured: Bacterial Biotransformation
Also: call rule not given here.

CCN(CC)CCNC(=O)c1cc(Cl)c(N)cc1OC [METOCLOPRAMIDE]
Compound metabolized: [8]
Compound NOT metabolized: all other assays above

Cc1ccccc1N1C(=O)c2cc(S(N)(=O)=O)c(Cl)cc2NC1C (stereo not given) [METOLAZONE]
Compound NOT metabolized: [1] | [2] | [3] | [4] | [5] | [9] | [11] | [12] | [15]
Compound metabolized: all other assays above

COCCc1ccc(OCC(O)CNC(C)C)cc1.COCCc1ccc(OCC(O)CNC(C)C)cc1.O=C(O)C(O)C(O)C(=O)O (stereo not given) [METOPROLOL TARTRATE]
Compound metabolized: [3] | [6] | [8] | [15] | [18] | [19]
Compound NOT metabolized: all other assays above

COc1c(C)c2c(c(O)c1C/C=C(\C)CCC(=O)OCCN1CCOCC1)C(=O)OC2 [MYCOPHENOLATE MOFETIL]
Compound metabolized: all assays above

CCN(CC)CCOC(=O)C(Cc1cccc2ccccc12)CC1CCCO1.O=C(O)C(=O)O (stereo not given) [NAFRONYL OXALATE]
Compound NOT metabolized: [2] | [5] | [16] | [17]
Compound metabolized: all other assays above

C=CCN1CC[C@]23c4c5ccc(O)c4O[C@H]2C(=O)CC[C@@]3(O)[C@H]1C5 [NALOXONE]
Compound metabolized: [5] | [17] | [20]
Compound NOT metabolized: all other assays above
